These are literature values, as cited in patent US7939522B1, “Dosage formulations for acetylcholinesterase inhibitors” (priority 1999, dated 2011).

In one series the test system is sleep. To be noted: humans, systemic administration late in the day or at night (Sitaram, 1979, Reimann, 1994).
The conditions of series [1]: reported (Thomsen, 1990).

Regarding `CNC(=O)Oc1ccc2c(c1)[C@]1(C)CCN(C)[C@@H]1N2C` [physostigmine], in the series on sleep, the effect on sleep result is “disturb sleep and produce awakenings”.

On to `COc1ccc2c3c1O[C@H]1C[C@@H](O)C=C[C@@]31CCN(C)C2` [galanthamine], for which the half life in series [1] was 4.5 to 8 h.
